Reference: patent publication US11399455B1, “Cast pellets for planting seeds” (Ball Horticultural Company, priority 2010, dated 2022)

Assays:
[1] = system: Impatiens Dazzler White seeds; assay: Growth regulator in casting: germination and plant height; assay type: in vivo; settings: count date 11; for Germ (%): 25° C.
Method: (§1) A single seed was placed in every mold cavity of a mold containing 108 cavities of dimensions 0.25 inch (6.4 mm) in length by 0.125 inch (3.2 mm) in width and 0.125 inch (3.2 mm) in depth. The following growth regulator concentrations were applied to seed via the casting method: 2 ppm, 4 ppm, and 8 ppm. PEG 4000 (100 g) was weighed out and put into a beaker. This was done four times. Each beaker with the PEG 4000 was heated to 111° F. until the PEG 4000 completely melted. The growth regulator concentrations were made by dissolving a given weight of the plant grown retardant ancymidol (α-cyclopropyl-α-(p-methoxyphenyl)-5-pyrimidinemethanol; A-REST) powder into 1 ml of acetone, as follows: 6.4 mg A-REST into 1 ml of acetone for 2 ppm; 12.8 mg A-REST into 1 ml of acetone for 4 ppm; and 25.6 mg A-REST into 1 ml acetone for 8 ppm. Once dissolved, the specified concentrations of A-REST were added to the beakers with the melted PEG and mixed on the heated stir plate until well blended; 65 μl was pipetted into the cavities that contained the seeds. Once the entire mold was filled it was set aside to cool. […] The castings were then removed from the mold.
(§2) The 108 castings (seed plus PEG 4000) containing the A-REST concentrations, along with a cast only (no added A-REST) and a raw control, were sown in a plug tray to evaluate germination. Seeds were sown at 25° C. The plug trays were run through a watering tunnel and then put into a Stage 1 mist chamber. Upon radical emergence, the plugs were placed in a Stage 2 chamber. The amount of time in Stage 1 and Stage 2 was dependent on the crop.
(§3) Plant height was measured and recorded on the same day seed germination was recorded.

[2] = system: Marigolds African Marvel Orange seeds; assay: as above; assay type: in vivo; settings: count date 10; for Germ (%): 25° C.
Method: as §1, §2, §3

COc1ccc(C(O)(c2cncnc2)C2CC2)cc1 (stereo not drawn) [A-REST, α-cyclopropyl-α-(p-methoxyphenyl)-5-pyrimidinemethanol]
Germ (%) ([1]; 2 ppm in PEG 4000 casting): 96%
Ave. Height (mm) ([1]; 2 ppm in PEG 4000 casting): 13 mm
Germ (%) ([1]; 4 ppm in PEG 4000 casting): 94%
Ave. Height (mm) ([1]; 4 ppm in PEG 4000 casting): 11 mm
Germ (%) ([1]; 8 ppm in PEG 4000 casting): 99%
Ave. Height (mm) ([1]; 8 ppm in PEG 4000 casting): 9 mm
Germ (%) ([2]; 2 ppm in PEG 4000 casting): 98%
Ave. Height (mm) ([2]; 2 ppm in PEG 4000 casting): 12 mm
Germ (%) ([2]; 4 ppm in PEG 4000 casting): 87%
Ave. Height (mm) ([2]; 4 ppm in PEG 4000 casting): 12 mm
Germ (%) ([2]; 8 ppm in PEG 4000 casting): 82%
Ave. Height (mm) ([2]; 8 ppm in PEG 4000 casting): 12 mm
